“Also recorded” adds a separate entry of the source. Read-outs that look alike come from different tables or passages of the source.
How the values were obtained:
B16F10 cells = system: B16F10 cells; design: method as in PMID 30856375; conditions: cited from earlier work
mushroom tyrosinase [1] = biological target: T1, mushroom tyrosinase (Agaricus bisporus, UniProt C7FF04); conditions: cited from earlier work
mushroom tyrosinase [2] = biological target: T1, mushroom tyrosinase; assay: Mushroom tyrosinase inhibitory assay with L-dopa as substrate; format: biochemical; conditions: for inhibition at 100 µM: read-out: % Inhibition at 100 μM;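 on all read-outs here: enzyme activity followed as absorbance change at 475 nm in phosphate buffer pH 6.8, monitored continuously, IC50 derived from percent inhibition dose–response curves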
Description: The mushroom tyrosinase activity assays for the synthetic compounds were conducted using a modified procedure from a previous study. In summary, a 96-well microplate was utilized, and 160 μl of phosphate buffer (50 mM, pH 6.8), 10 μl of mushroom tyrosinase (500 U/ml, dissolved in PBS), and 10 μl of the test compound (dissolved in DMSO) were added to each well. Then, 20 μl of L-dopa (7 mM, dissolved in PBS) was added to initiate the enzymatic reaction. The change in absorbance at 475 nm was continuously monitored using a spectrophotometer. […] The IC50 value, representing the compound’s inhibitory potency, was determined from dose–response curves of percentage inhibition.

mushroom tyrosinase [3] = biological target: T1, mushroom tyrosinase; assay: Determination of the inhibition type (Lineweaver–Burk plot analysis)
[4] = L-dopa substrate, ± SD, read-out: IC50 ± SD

T1 sequence (C7FF04 1-392): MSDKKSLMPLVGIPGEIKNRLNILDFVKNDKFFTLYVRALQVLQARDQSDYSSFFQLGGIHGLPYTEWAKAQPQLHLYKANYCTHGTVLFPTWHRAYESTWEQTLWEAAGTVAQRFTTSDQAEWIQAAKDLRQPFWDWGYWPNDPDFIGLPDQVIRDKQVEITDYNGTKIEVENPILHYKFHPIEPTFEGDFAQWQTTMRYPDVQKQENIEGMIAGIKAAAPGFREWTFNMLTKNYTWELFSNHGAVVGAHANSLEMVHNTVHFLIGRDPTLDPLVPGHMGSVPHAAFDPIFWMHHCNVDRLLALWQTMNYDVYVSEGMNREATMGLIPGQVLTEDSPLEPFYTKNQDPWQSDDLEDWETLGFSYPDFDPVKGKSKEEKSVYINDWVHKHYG

## CN1CCN(C(=O)/C=C/c2ccc(O)cc2O)CC1 [C]
B16F10 cells
  Cellular tyrosinase activity: dose-dependently inhibited
  Melanin content: dose-dependently inhibited
Mushroom tyrosinase [1]; at 25 μM
  % inhibition: 94.39%

## O=C(OCCN1CCN(c2ccc([N+](=O)[O-])cc2)CC1)c1ccccc1 [Compound 4a, 2-(4-(4-Nitrophenyl)piperazin-1-yl)ethyl benzoate]
other
  melting point: 176 to 178 °C
Mushroom tyrosinase [2]
  IC50: 174.7 ± 0.68 µM
Mushroom tyrosinase [2]; 100 μM, L-dopa substrate, ± SD
  inhibition at 100 µM: 35.8 ± 3.24%

## O=C(OCCN1CCN(c2ccc([N+](=O)[O-])cc2)CC1)c1ccccc1Br [Compound 4b, 2-(4-(4-Nitrophenyl)piperazin-1-yl)ethyl 2-bromobenzoate]
other
  melting point: 185 to 187 °C
Mushroom tyrosinase [2]
  IC50: > 200 µM
Mushroom tyrosinase [2]; 100 μM, L-dopa substrate, ± SD
  inhibition at 100 µM: 20.6 ± 2.58%

## O=C(OCCN1CCN(c2ccc([N+](=O)[O-])cc2)CC1)c1ccc(Cl)cc1Cl [Compound 4c, 2-(4-(4-Nitrophenyl)piperazin-1-yl)ethyl 2,4-dichlorobenzoate]
other
  melting point: 196 to 198 °C
Mushroom tyrosinase [2]
  IC50: > 200 µM
Mushroom tyrosinase [2]; 100 μM, L-dopa substrate, ± SD
  inhibition at 100 µM: 27.9 ± 3.09%

## O=C(OCCN1CCN(c2ccc([N+](=O)[O-])cc2)CC1)c1ccc([N+](=O)[O-])cc1 [Compound 4d, 2-(4-(4-Nitrophenyl)piperazin-1-yl)ethyl 4-nitrobenzoate]
other
  melting point: 172 to 174 °C
Mushroom tyrosinase [2]; 100 μM, L-dopa substrate, ± SD
  inhibition at 100 µM: 28.3 ± 2.89%
Mushroom tyrosinase [2]; [4]
  IC50: 203.2 ± 1.16 µM

## O=C(OCCN1CCN(c2ccc([N+](=O)[O-])cc2)CC1)c1cccc([N+](=O)[O-])c1 [Compound 4e, 2-(4-(4-Nitrophenyl)piperazin-1-yl)ethyl 3-nitrobenzoate]
other
  melting point: 181 to 183 °C
Mushroom tyrosinase [2]; 100 μM, L-dopa substrate, ± SD
  inhibition at 100 µM: 24.9 ± 2.81%
Mushroom tyrosinase [2]; [4]
  IC50: > 200 µM

## O=C(OCCN1CCN(c2ccc([N+](=O)[O-])cc2)CC1)c1ccc([N+](=O)[O-])cc1Cl [Compound 4f, 2-(4-(4-Nitrophenyl)piperazin-1-yl)ethyl 2-chloro-4-nitrobenzoate]
other
  melting point: 203 to 205 °C
Mushroom tyrosinase [2]; 100 μM, L-dopa substrate, ± SD
  inhibition at 100 µM: 35.1 ± 2.25%
Mushroom tyrosinase [2]; [4]
  IC50: > 200 µM

## COc1ccc(CC(=O)OCCN2CCN(c3ccc([N+](=O)[O-])cc3)CC2)cc1 [Compound 4g, 2-(4-(4-Nitrophenyl)piperazin-1-yl)ethyl 2-(4-methoxyphenyl)acetate]
other
  melting point: 207 to 209 °C
Mushroom tyrosinase [2]
  IC50: > 200 µM
Mushroom tyrosinase [2]; 100 μM, L-dopa substrate, ± SD
  inhibition at 100 µM: 30 ± 4.04%

## COc1ccc(C=O)c(C(=O)OCCN2CCN(c3ccc([N+](=O)[O-])cc3)CC2)c1OC [Compound 4h, 2-(4-(4-Nitrophenyl)piperazin-1-yl)ethyl 6-formyl-2,3-dimethoxybenzoate]
other
  melting point: 176 to 178 °C
Mushroom tyrosinase [2]
  IC50: 200.9 ± 1.32 µM
Mushroom tyrosinase [2]; 100 μM, L-dopa substrate, ± SD
  inhibition at 100 µM: 26.9 ± 3.55%

## O=C(Cc1ccccc1)OCCN1CCN(c2ccc([N+](=O)[O-])cc2)CC1 [Compound 4i, 2-(4-(4-Nitrophenyl)piperazin-1-yl)ethyl 2-phenylacetate]
other
  melting point: 178 to 180 °C
Mushroom tyrosinase [2]
  IC50: 184.2 ± 0.88 µM
  inhibition at 100 µM: 39.4 ± 4.18%

## O=C(C=Cc1ccccc1)OCCN1CCN(c2ccc([N+](=O)[O-])cc2)CC1 [Compound 4j, 2-(4-(4-Nitrophenyl)piperazin-1-yl)ethyl cinnamate]
other
  melting point: 185 to 187 °C
Mushroom tyrosinase [2]
  IC50: > 200 µM
Mushroom tyrosinase [2]; 100 μM, L-dopa substrate, ± SD
  inhibition at 100 µM: 23.1 ± 3.6%

## O=C(OCCN1CCN(c2ccc([N+](=O)[O-])cc2)CC1)c1cccnc1 [Compound 4k, 2-(4-(4-Nitrophenyl)piperazin-1-yl)ethyl nicotinate]
other
  melting point: 168 to 170 °C
Mushroom tyrosinase [2]
  IC50: 82.7 ± 1.16 µM
Mushroom tyrosinase [2]; 100 μM, L-dopa substrate, ± SD
  inhibition at 100 µM: 54.3 ± 4.58%

## O=C(OCCN1CCN(c2ccc([N+](=O)[O-])cc2)CC1)c1cc2ccccc2[nH]1 [Compound 4l, 2-(4-(4-Nitrophenyl)piperazin-1-yl)ethyl 1H-indole-2-carboxylate]
other
  melting point: 192 to 194 °C
Mushroom tyrosinase [2]
  IC50: 72.55 ± 0.49 µM
Mushroom tyrosinase [2]; 100 μM, L-dopa substrate, ± SD
  inhibition at 100 µM: 66.6 ± 4.12%
Mushroom tyrosinase [3]; Lineweaver–Burk plot, L-dopa substrate
  Inhibition mode: mixed inhibitor; also recorded: mixed-type inhibition
Mushroom tyrosinase [3]; inhibitor concentration 10 µM
  Vmax: 65.79 mM/min
Mushroom tyrosinase [3]; inhibitor concentration 40 µM
  Vmax: 64.10 mM/min
Mushroom tyrosinase [3]; inhibitor concentration 100 µM
  Vmax: 62.89 mM/min

## O=C(OCCN1CCN(c2ccc([N+](=O)[O-])cc2)CC1)c1ccc([N+](=O)[O-])o1 [Compound 4m, 2-(4-(4-Nitrophenyl)piperazin-1-yl)ethyl 5-nitrofuran-2-carboxylate]
Mushroom tyrosinase [2]; 100 μM, L-dopa substrate, ± SD
  inhibition at 100 µM: 43.7 ± 3.18%
Mushroom tyrosinase [2]; [4]
  IC50: 175.3 ± 0.24 µM

## COc1ccc(/C=C/C(=O)N2CCN(c3ccc(F)c(Cl)c3)CC2)cc1[N+](=O)[O-] [D]
Mushroom tyrosinase [1]
  IC50: 0.51 µM

## O=C(c1ccccc1C(F)(F)F)N1CCN(Cc2ccc(F)cc2)CC1 [E]
Mushroom tyrosinase [1]
  IC50: 0.48 ± 0.05 µM

## O=C(O)/C=C/c1ccc(O)c(O)c1 [caffeic acid]
Mushroom tyrosinase [1]
  Tyrosinase inhibitory potential: almost inactive

Reference: publication PMC10998383, “Nitrophenylpiperazine derivatives as novel tyrosinase inhibitors: design, synthesis, and in silico evaluations” (BMC Chemistry, 2024)
